Data on eleven compounds can be found in patent publication US4374149A, “α-{[(Arylalkyl)amino]alkyl}-4-hydroxy-3-(lower-alkylsul finyl)benzenemethanols” (Sterling Drug Inc., priority 1978, dated 1983).

The subject of one experiment is systolic blood pressure. The experiment can be described thus: Antihypertensive activity, reduction in systolic blood pressure, single oral medication, unanesthetized spontaneous hypertensive rat. Format: in vivo. Conditions: P.O.; for Antihypertensive activity SH Rat AHD40 (single oral dose required to induce a 40 mm. average reduction in systolic blood pressure): unanesthetized SH rat.

The subject of another experiment is hind limb vasculature. The experiment in a line: Vasodilator activity, perfusion pressure in hind limb vasculature of anesthetized dog. Format: in vivo. The note with it: for Actual percentage reduction in perfusion pressure observed at the indicated dose: 0.025 mg./kg. intraarterial; for Vasodilator activity Dog-Leg Perfusion AED50 (approximate intraarterial dose for 50 reduction in perfusion pressure): acetate salt; for ED50: Canis lupus familiaris, read-out: Vasodilator activity Dog-Leg Perfusion AED50 (approximate intraarterial dose for 50 reduction in perfusion pressure). An excerpt:
(§1) Vasodilator activity was judged on the basis of observed reduction in perfusion pressure in the hind limb vasculature of the anesthetized dog determined according to the procedure described by Jandhyala et al., European J. Pharm. 17, 357 (1972), and also on the basis of percent reduction in perfusion pressure as measured in the isolated rabbit ear artery according to the method described by De LaLande et al., Aust. J. Exp. Biol. Med. Sci. 43, 639 (1965).
^c AED50 = approximate intraarterial dose required to cause a 50

Experiment [1] has as its system isolated rabbit ear artery. The experiment can be described thus: Vasodilator activity, perfusion pressure in isolated rabbit ear artery.
Source text: as §1
^d Vasodilation is expressed as the percentage reduction in perfusion

The next experiment has as its system β-adrenergic. The experiment in a line: β-adrenergic blocking activity, inhibition of isoproterenol-elicited heart rate increase in pentobarbitalized dog. The note with it: i.v.; for Dog β-blockade AED50 (approximate intravenous dose for 50% inhibition of isoproterenol-elicited heart rate increase): pentobarbitalized dog. Format: in vivo.
The next experiment has as its system blood pressure. The experiment in a line: Antihypertensive activity, sustained lowering of blood pressure, repeated oral medication, unanesthetized trained renal hypertensive dog. Format: in vivo. Conditions: tid.
[2] abbreviates: intraarterial, anesthetized dog hind limb.
Setting [3] is: 5 × 10^-5 M, 50 µM, acetate salt.
Setting [4] is: 1 × 10^-4 M, 100 µM, hydrochloride.

Where a name gives a salt, the structure may show the parent alone. Read-outs that look alike come from different tables or passages of the source.

Experimental for systolic blood pressure: Antihypertensive activity was determined on the basis of the observed reduction in systolic blood pressure measured according to the method of H. Kersten et al., J. Lab. and Clin. Med. 32, 1090 (1947) following a single oral medication in the unanesthetized spontaneous hypertensive rat described by Okamato et al., Japan Circulation J. 27, 282 (1963).
^a AHD40 = single oral dose required to induce a 40 mm. average
Experimental for β-adrenergic: The β-adrenergic blocking activity was determined in the pentobarbitalized dog as judged by the ability of the test compound to inhibit the elevation in heart rate elicited by a 0.5 mcg./kg. i.v. injection of isoproterenol.
^e AED50 = approximate intravenous dose required to cause 50%

Consider `COc1ccc(CCC(C)NCC(O)c2ccc(O)c([S+](C)[O-])c2)cc1` (stereo not drawn) [Example 9D, 4-hydroxy-α-<{[3-(4-methoxyphenyl)-1-methylpropyl]amino}methyl>-3-(methylsulfinyl)benzenemethanol acetate salt], for which the “Antihypertensive activity SH Rat AHD40 (single oral dose required to induce a 40 mm. average reduction in systolic blood pressure)” value in the experiment with systolic blood pressure (acetate salt) was determined as 20.0 mg/kg. In addition, in the experiment with hind limb vasculature, the “Actual percentage reduction in perfusion pressure observed at the indicated dose” value stood at 25%. Further, the “Vasodilator activity Dog-Leg Perfusion AED50 (approximate intraarterial dose for 50 reduction in perfusion pressure)” value with hind limb vasculature (setting [2]) was over 0.025 mg/kg. Moreover, the “Rabbit Ear Artery vasodilation (percentage reduction in perfusion pressure from control level)” value in experiment [1] (setting [3]) is 61%. In the experiment with β-adrenergic (acetate salt), the “Dog β-blockade AED50 (approximate intravenous dose for 50% inhibition of isoproterenol-elicited heart rate increase)” value turned out to be 0.0125 mg/kg.

On to `COc1ccc(CCC(C)NCC(O)c2ccc(O)c([S+](C)[O-])c2)cc1` (stereo not drawn) [Example 6E, 4-hydroxy-α-<{[3-(4-methoxyphenyl)-1-methylpropyl]amino}methyl>-3-(methylsulfinyl)benzenemethanol acetate salt], for which, in the experiment on systolic blood pressure (acetate salt), the “Antihypertensive activity SH Rat AHD40 (single oral dose required to induce a 40 mm. average reduction in systolic blood pressure)” value came to 15.0 mg/kg. Moreover, the “Actual percentage reduction in perfusion pressure observed at the indicated dose” value in the experiment with hind limb vasculature is on record as 25%. Besides, the “Vasodilator activity Dog-Leg Perfusion AED50 (approximate intraarterial dose for 50 reduction in perfusion pressure)” value in the experiment on hind limb vasculature (setting [2]) is over 0.025 mg/kg. For the same compound, in experiment [1] (setting [3]), the “Rabbit Ear Artery vasodilation (percentage reduction in perfusion pressure from control level)” value was 58%. The “Dog β-blockade AED50 (approximate intravenous dose for 50% inhibition of isoproterenol-elicited heart rate increase)” value in the experiment with β-adrenergic (acetate salt) amounted to 0.25 mg/kg.

Consider `COc1ccc(CCCNCC(O)c2ccc(O)c([S+](C)[O-])c2)cc1` (stereo not drawn) [Example 20C, 4-hydroxy-α-<{[3-(4-methoxyphenyl)propyl]amino}methyl>-3-(methylsulfinyl)benzenemethanol acetate salt], for which the “Antihypertensive activity SH Rat AHD40 (single oral dose required to induce a 40 mm. average reduction in systolic blood pressure)” value with systolic blood pressure was determined as 7.0 mg/kg. For the same compound, the ED50 in the experiment on hind limb vasculature (setting [2]) amounted to 0.5 mg/kg. The “Rabbit Ear Artery vasodilation (in words)” value in experiment [1] (concentration not given) is on record as “constrictor”. Besides, in the experiment with blood pressure, the “Renal Hypertensive Dog MED10 (minimum repeated oral daily dose for sustained lowering of blood pressure of 10% or greater)” value was over 0.125 mg/kg. Also, the “Actual percentage reduction in blood pressure observed at the indicated dose” value in the experiment with blood pressure (0.125 mg./kg.) was determined as 0%. The “Actual percentage inhibition of heart rate increase above control level observed at the indicated dose” value in the experiment on β-adrenergic (0.1 mg./kg.) turned out to be 67%. For the same compound, the “Dog β-blockade AED50 (approximate intravenous dose for 50% inhibition of isoproterenol-elicited heart rate increase)” value in the experiment on β-adrenergic is under 0.1 mg/kg.

`COc1ccc(CC(C)NCC(O)c2ccc(O)c([S+](C)[O-])c2)cc1OC` (stereo not drawn) [Example 16C, α-<{[2-(3,4-dimethoxyphenyl)-1-methylethyl]amino}methyl>-4-hydroxy-3-(methylsulfinyl)benzenemethanol acetate salt]: the “Antihypertensive activity SH Rat AHD40 (single oral dose required to induce a 40 mm. average reduction in systolic blood pressure)” value in the experiment with systolic blood pressure is 15.0 mg/kg. The ED50 with hind limb vasculature is 0.5 mg/kg. Moreover, in experiment [1] (5 × 10^-5 M, 50 µM), the “Rabbit Ear Artery vasodilation (percentage reduction in perfusion pressure from control level)” value is listed as 75%. Also, the “Actual percentage inhibition of heart rate increase above control level observed at the indicated dose” value in the experiment on β-adrenergic (0.1 mg./kg.) is recorded as 38%. For the same compound, the “Dog β-blockade AED50 (approximate intravenous dose for 50% inhibition of isoproterenol-elicited heart rate increase)” value in the experiment with β-adrenergic was over 0.1 mg/kg.

Consider `CC(=O)O.C[S+]([O-])c1cc(C(O)CNC(C)(C)Cc2ccccc2)ccc1O` (stereo not drawn) [Example 14D, α-{[(1,1-dimethyl-2-phenylethyl)amino]-methyl}-4-hydroxy-3-(methylsulfinyl)benzenemethanol acetate salt], for which the “Antihypertensive activity SH Rat AHD40 (single oral dose required to induce a 40 mm. average reduction in systolic blood pressure)” value in the experiment with systolic blood pressure came to 20.0 mg/kg. Further, the ED50 in the experiment with hind limb vasculature (setting [2]) came to 0.5 mg/kg. Further, in experiment [1] (1 × 10^-6 M, 1 µM), the “Rabbit Ear Artery vasodilation (percentage reduction in perfusion pressure from control level)” value is 29%. For the same compound, the “Actual percentage inhibition of heart rate increase above control level observed at the indicated dose” value in the experiment with β-adrenergic (1.0 mg./kg.) is 87%. In addition, in the experiment on β-adrenergic, the “Dog β-blockade AED50 (approximate intravenous dose for 50% inhibition of isoproterenol-elicited heart rate increase)” value was under 1.0 mg/kg.

With `COc1ccc(CCC(C)NCC(O)c2ccc(O)c([S+](C)[O-])c2)cc1` (single isomer, unassigned) [Example 11, 4-hydroxy-α-<{[3-(4-methoxyphenyl)-1-methylpropyl]amino}methyl>-3-(methylsulfinyl)benzenemethanol hydrochloride], in the experiment with systolic blood pressure (16.0 mg./kg., hydrochloride), the “Actual reduction in blood pressure observed at the indicated dose” value (“Actual reduction” for short) is -14 mm. Hg. Besides, the “Antihypertensive activity SH Rat AHD40 (single oral dose required to induce a 40 mm. average reduction in systolic blood pressure)” value with systolic blood pressure (hydrochloride) is over 16.0 mg/kg. Moreover, the “Rabbit Ear Artery vasodilation (percentage reduction in perfusion pressure from control level)” value in experiment [1] (setting [4]) came out at 38%. Moreover, the “Actual percentage reduction in blood pressure observed at the indicated dose” value in the experiment with blood pressure (0.5 mg./kg., hydrochloride) turned out to be 14%. The “Renal Hypertensive Dog MED10 (minimum repeated oral daily dose for sustained lowering of blood pressure of 10% or greater)” value with blood pressure (hydrochloride) is under 0.5 mg/kg. The “Dog β-blockade AED50 (approximate intravenous dose for 50% inhibition of isoproterenol-elicited heart rate increase)” value with β-adrenergic (hydrochloride) was 0.25 mg/kg.

Turning to `COc1ccc(CCC(C)NCC(O)c2ccc(O)c([S+](C)[O-])c2)cc1` (single isomer, unassigned) [Example 12, 4-hydroxy-α-<{[3-(4-methoxyphenyl)-1-methylpropyl]amino}methyl>-3-(methylsulfinyl)benzenemethanol hydrochloride], the “Antihypertensive activity SH Rat AHD40 (single oral dose required to induce a 40 mm. average reduction in systolic blood pressure)” value in the experiment with systolic blood pressure (hydrochloride) was determined as 5 mg/kg. In addition, in experiment [1] (2 × 10^-4 M, 200 µM), the “Rabbit Ear Artery vasodilation (percentage reduction in perfusion pressure from control level)” value was 50%. The “Actual percentage reduction in blood pressure observed at the indicated dose” value in the experiment on blood pressure (0.5 mg./kg., hydrochloride) is 14%. Besides, the “Renal Hypertensive Dog MED10 (minimum repeated oral daily dose for sustained lowering of blood pressure of 10% or greater)” value in the experiment with blood pressure (hydrochloride) is under 0.5 mg/kg. Further, the “Dog β-blockade AED50 (approximate intravenous dose for 50% inhibition of isoproterenol-elicited heart rate increase)” value with β-adrenergic (hydrochloride) stood at 0.05 mg/kg.

In the case of `COc1ccc(CCC(C)NCC(O)c2ccc(O)c([S+](C)[O-])c2)cc1` (stereo not drawn) [Example 4C, 4-hydroxy-α-<{[3-(4-methoxyphenyl)-1-methylpropyl]amino}methyl>-3-(methylsulfinyl)benzenemethanol acetate salt], the “Actual reduction” value in the experiment on systolic blood pressure (20 mg./kg.) is -33 mm. Hg. Besides, the “Antihypertensive activity SH Rat AHD40 (single oral dose required to induce a 40 mm. average reduction in systolic blood pressure)” value in the experiment with systolic blood pressure (acetate salt) is over 20.0 mg/kg. Besides, in the experiment on hind limb vasculature (setting [2]), the “Vasodilator activity Dog-Leg Perfusion AED50 (approximate intraarterial dose for 50 reduction in perfusion pressure)” value amounted to 0.5 mg/kg. Also, the “Rabbit Ear Artery vasodilation (percentage reduction in perfusion pressure from control level)” value in experiment [1] (1 × 10^-4 M, 100 µM, acetate salt) is reported as 10%. The “Dog β-blockade AED50 (approximate intravenous dose for 50% inhibition of isoproterenol-elicited heart rate increase)” value with β-adrenergic (acetate salt) is about 0.5 mg/kg.

On to `COc1ccc(CCC(C)NCC(O)c2ccc(O)c([S+](C)[O-])c2)cc1` (single isomer, unassigned) [Example 13C, 4-hydroxy-α-<{[3-(4-methoxyphenyl)-1-methylpropyl]amino}methyl>-3-(methylsulfinyl)benzenemethanol hydrochloride], for which, in the experiment with systolic blood pressure (hydrochloride), the “Antihypertensive activity SH Rat AHD40 (single oral dose required to induce a 40 mm. average reduction in systolic blood pressure)” value turned out to be 3 mg/kg. The “Rabbit Ear Artery vasodilation (percentage reduction in perfusion pressure from control level)” value in experiment [1] (setting [4]) worked out at 50%. Moreover, the “Actual percentage reduction in blood pressure observed at the indicated dose” value in the experiment with blood pressure (0.5 mg./kg., hydrochloride) turned out to be 17%. Moreover, in the experiment with blood pressure (hydrochloride), the “Renal Hypertensive Dog MED10 (minimum repeated oral daily dose for sustained lowering of blood pressure of 10% or greater)” value is under 0.5 mg/kg. Moreover, in the experiment on β-adrenergic (hydrochloride), the “Dog β-blockade AED50 (approximate intravenous dose for 50% inhibition of isoproterenol-elicited heart rate increase)” value is 0.0125 mg/kg.

As for `COc1ccc(CCC(C)NCC(O)c2ccc(O)c([S+](C)[O-])c2)cc1` (stereo not drawn) [Example 2H, 4-hydroxy-α-<{[3-(4-methoxyphenyl)-1-methylpropyl]amino}methyl>-3-(methylsulfinyl)benzenemethanol acetate salt], in the experiment on systolic blood pressure (acetate salt), the “Antihypertensive activity SH Rat AHD40 (single oral dose required to induce a 40 mm. average reduction in systolic blood pressure)” value is 9.0 mg/kg. Further, the “Vasodilator activity Dog-Leg Perfusion AED50 (approximate intraarterial dose for 50 reduction in perfusion pressure)” value in the experiment with hind limb vasculature (setting [2]) came out at 0.5 mg/kg. Moreover, the “Rabbit Ear Artery vasodilation (percentage reduction in perfusion pressure from control level)” value in experiment [1] (setting [3]) is on record as 20%. Further, the “Dog β-blockade AED50 (approximate intravenous dose for 50% inhibition of isoproterenol-elicited heart rate increase)” value in the experiment on β-adrenergic (acetate salt) was determined as 0.025 mg/kg.

For the compound `COc1ccc(CCC(C)NCC(O)c2ccc(O)c([S+](C)[O-])c2)cc1` (single isomer, unassigned) [Example 10, 4-hydroxy-α-<{[3-(4-methoxyphenyl)-1-methylpropyl]amino}methyl>-3-(methylsulfinyl)benzenemethanol hydrochloride], the “Actual reduction” value in the experiment on systolic blood pressure (16.0 mg./kg., hydrochloride) is listed as -17 mm. Hg. The “Antihypertensive activity SH Rat AHD40 (single oral dose required to induce a 40 mm. average reduction in systolic blood pressure)” value in the experiment with systolic blood pressure (hydrochloride) is over 16.0 mg/kg. Also, in experiment [1] (2 × 10^-4 M, 200 µM), the “Rabbit Ear Artery vasodilation (percentage reduction in perfusion pressure from control level)” value is 50%. The “Actual percentage reduction in blood pressure observed at the indicated dose” value in the experiment with blood pressure (0.5 mg./kg., hydrochloride) is reported as 8%. The “Renal Hypertensive Dog MED10 (minimum repeated oral daily dose for sustained lowering of blood pressure of 10% or greater)” value with blood pressure (hydrochloride) was over 0.5 mg/kg. In addition, in the experiment with β-adrenergic (0.1 mg./kg.), the “Actual percentage inhibition of heart rate increase above control level observed at the indicated dose” value is reported as 23%. Also, the “Dog β-blockade AED50 (approximate intravenous dose for 50% inhibition of isoproterenol-elicited heart rate increase)” value with β-adrenergic (hydrochloride) is over 0.10 mg/kg.
